Data as given in EP4341264B1, “PYRROLOPIRIMIDINE DERIVATIVES AND THEIR USE IN THE TREATMENT OF LEISHMANIASIS” (Drugs for Neglected Diseases Initiative, priority 2021, dated 2022).
Like-named read-outs stand apart in the source and are kept apart here.

Key:
L. infantum = test: VL hamster model in vivo efficacy (reduction of parasite load vs. control); settings: 5 days
Protocol: The in vivo efficacy of the compounds C1, C3, C4, and miltefosine was evaluated in a VL hamster model infected with L. infantum. The in vivo studies were performed in accordance with the methods described by Van den Kerkhof et al. [IJP: Drugs and Drug Resistance, 2018, 8, Issue 1, 81-86]. Following treatment, the reduction of parasite load vs. control was determined in different body compartments (liver, spleen, and bone marrow) with results presented in Table 4. Table 4. Hamster in vivo efficacy

[1] = tested on: L. infantum (MHOM/MA/67/ITMAP263); test: Intracellular amastigote susceptibility assay (primary peritoneal mouse macrophages); type: cell-based; settings: Leishmania infantum, Macrophage; L. infantum (MHOM/MA/67/ITMAP263) amastigotes in mouse macrophages, 96-h incubation
Protocol: (§1) To obtain primary peritoneal macrophages, Swiss mice were stimulated by intraperitoneal injection of 1 mL 2% starch in PBS 48 h prior to cell collection. Animals were euthanized with a CO2 overdose and upon removal of the skin, 10 mL of RPMI-1640 (Life Technologies) was injected into the peritoneal cavity to collect the macrophages that were then seeded into 96-well plates at a final concentration of 30,000 cells/well in 100 µL of RPMI-1640 macrophage medium, supplemented with 5% iFCS, 2% penicillin/streptomycin and 1% L-glutamine (Life technologies). After 24 h, the cells were infected with spleen derived L. infantum (MHOM/MA(BE)/67/ITMAP263) or L. donovani (MHOM/ET/67/L82) amastigotes obtained from heavily infected donor hamsters. The amastigotes were purified using two centrifugation steps and diluted to obtain an infection ratio of 5:1 in RPMI-1640 cell culture medium. After incubation for 2 h, compound dilutions were added. Drug activity was evaluated after a 96-h incubation period without washing of the cells and without renewal of the drugged culture medium. Cells were stained with Giemsa for microscopic evaluation of cellular amastigote burdens. Percentage reduction compared to the burdens in the infected non-treated control wells was used as a measure for drug activity.

[2] = tested on: L. donovani (MHOM/ET/67/L82); test: as above; type: cell-based; settings: Leishmania donovani, Macrophage; L. donovani (MHOM/ET/67/L82) amastigotes in mouse macrophages, 96-h incubation
Protocol: as §1

[3] = tested on: L. panamensis (MHOM/PA/71/LS94); test: Leishmania clinical isolate panel screen (drug-susceptibility assay in infected macrophages); type: cell-based; settings: Macrophage, read-out: IC50 Mean ± SEM
Protocol: (§2) Female Swiss mice (BW ~20 g) were purchased from a commercial source (Janvier France) and kept in quarantine for 1 week. The animals were housed in group and drinking water was available ad libitum. To harvest peritoneal macrophages, the mice were first stimulated by intraperitoneal injection of 1 mL of starch solution (2% in PBS). After 24 h, macrophages were collected in RPMI-1640 supplemented with 5% iFCS, 2% penicillin-streptomycin and 1% L-glutamine by peritoneal lavage and immediately distributed in a 96-well plate at a concentration of 30,000 cells/well. The cells were incubated for 24 h at 37°C and 5 % CO2 to allow cell attachment.
(§3) Strains of L. donovani, L. infantum, L. major, L. tropica, L. guyanensis and L. panamensis were selected based on their intrinsic susceptibility to the commonly used reference drugs and their geographic distribution. All strains were cultivated in HOMEM promastigote medium and sub-cultured twice weekly. Passage numbers were kept as low as possible to avoid loss of virulence. For infection of the macrophages, metacyclic promastigote cultures were examined light microscopically for the abundant presence of metacyclic promastigotes. Upon counting, promastigotes were centrifuged and diluted in RPMI-1640 to the desired concentration. The infection ratio varied based on the ability of the strain to adequately infect the host cells and ranged from 5 to 20 promastigotes per macrophage. Macrophages were infected by adding 100 µL promastigote suspension per well onto the macrophages. When ex vivo amastigotes were available (only for two lab strains), macrophages were infected at a ratio of 10/1.
(§4) Stock solutions of the DNDi lead compounds were prepared in 100% DMSO at 20 mM and robotically further diluted in water. Miltefosine (MIL) was included as reference and formulated in water at a concentration of 20 mM. The medium was discarded from the plates to remove any residual non-internalized promastigotes and replaced by fresh RPMI-1640 medium supplemented with iFBS, P/S and L-glutamine (as described above). Next, a 2-fold dilution series of each lead compound was added to the plate with 64 µM as the highest in test-concentration for the DNDi leads and 40 µM for MIL. The 96-well plates were further incubated at 34-37°C and 5% CO2. For staining, the culture medium was discarded, and the plates were left to dry for 2-4 hours. The cells were then fixated with methanol for 10 minutes and stained with a 1/5 Giemsa dilution in water for 15 minutes. The percentage infection-inhibition compared to a positive control (untreated infected macrophages) was microscopically determined and used to calculate the IC50 and IC90 values.

[4] = tested on: L. guyanensis (MHOM/PE/02/PER 054/0); test: as above; type: cell-based; settings: Macrophage, read-out: IC50 Mean ± SEM
Protocol: as §2, §3, §4

[5] = tested on: L. infantum (LEM3323-cl4 PMM); test: as above; type: cell-based; settings: Macrophage, read-out: IC50 Mean ± SEM
Protocol: as §2, §3, §4

[6] = tested on: L. major (MHOM/SA/85/JISH118); test: as above; type: cell-based; settings: Macrophage, read-out: IC50 Mean ± SEM
Protocol: as §2, §3, §4

[7] = tested on: L. infantum (MHOM/ES/2016/LLM-2346); test: as above; type: cell-based; settings: Macrophage, read-out: IC50 Mean ± SEM
Protocol: as §2, §3, §4

[8] = tested on: L. donovani (MHOM/ NP/2003/BPK282/0-cl4); test: as above; type: cell-based; settings: Macrophage, read-out: IC50 Mean ± SEM
Protocol: as §2, §3, §4

[9] = tested on: L. major (MHOM/IL/81/Friedlin); test: as above; type: cell-based; settings: Macrophage, read-out: IC50 Mean ± SEM
Protocol: as §2, §3, §4

[10] = tested on: L. infantum (MHOM/BR/2007/WC (L3015)); test: as above; type: cell-based; settings: Macrophage, read-out: IC50 Mean ± SEM
Protocol: as §2, §3, §4

[11] = tested on: L. donovani (MHOM/NP/03/BPK275/0-cl18); test: as above; type: cell-based; settings: Macrophage, read-out: IC50 Mean ± SEM
Protocol: as §2, §3, §4

[12] = tested on: L. infantum (LEM3323-cl4 MIL); test: as above; type: cell-based; settings: Macrophage, read-out: IC50 Mean ± SEM
Protocol: as §2, §3, §4

[13] = tested on: L. tropica (MHOM/AF/2015/HTD7); test: as above; type: cell-based; settings: Macrophage, read-out: IC50 Mean ± SEM
Protocol: as §2, §3, §4

[14] = tested on: L. infantum (MHOM/FR/96/LEM3323-cl4); test: as above; type: cell-based; settings: Macrophage, read-out: IC50 Mean ± SEM
Protocol: as §2, §3, §4

[15] = tested on: L. donovani parasites in infected human macrophages; settings: Peña et al. Sci. Rep. 2015, 5; cited from earlier work
[16] = tested on: T. cruzi infected NIH-3T3 murine fibroblasts; settings: Peña et al. Sci. Rep. 2015, 5; cited from earlier work
[17] = Cutaneous leishmaniasis, L. panamensis (MHOM/PA/71/LS94), Miltefosine: mean only
[18] = Cutaneous leishmaniasis, L. guyanensis (MHOM/PE/02/PER 054/0), Miltefosine: mean only
[19] = Cutaneous leishmaniasis, L. major (MHOM/SA/85/JISH118), Miltefosine: mean only
[20] = Visceral leishmaniasis, L. infantum (MHOM/ES/2016/LLM-2346), Miltefosine: mean only
[21] = Visceral leishmaniasis, L. donovani (MHOM/ NP/2003/BPK282/0-cl4), Miltefosine: mean only
[22] = Cutaneous leishmaniasis, L. major (MHOM/IL/81/Friedlin), Miltefosine: mean only
[23] = Visceral leishmaniasis, L. infantum (MHOM/BR/2007/WC (L3015)), Miltefosine: mean only
[24] = Visceral leishmaniasis, L. donovani (MHOM/NP/03/BPK275/0-cl18), Miltefosine: mean only
[25] = Cutaneous leishmaniasis, L. tropica (MHOM/AF/2015/HTD7), Miltefosine: mean only
[26] = Visceral leishmaniasis, L. infantum (MHOM/FR/96/LEM3323-cl4), Miltefosine: mean only

SMILES | IC50 [1] [nM] | IC90 [1] [nM] | IC50 [2] [nM] | IC90 [2] [nM] | IC50 [3, 17] [nM] | IC50 [4, 18] [nM] | IC50 [5] [nM] | IC50 [6, 19] [nM] | IC50 [7, 20] [nM] | IC50 [8, 21] [nM] | IC50 [9, 22] [nM] | IC50 [10, 23] [nM] | IC50 [11, 24] [nM] | IC50 [12] [nM] | IC50 [13, 25] [nM] | IC50 [14, 26] [nM] | % Parasite reduction Bone marrow (L. infantum; 25 mg/kg qd) [%] | % Parasite reduction Liver (L. infantum; 25 mg/kg qd) [%] | % Parasite reduction Spleen (L. infantum; 25 mg/kg qd) [%] | further results
COc1cc(C#N)ccc1-c1c(C)[nH]c2nc(N)nc(C)c12 [Compound C1, 4-(2-amino-4,6-dimethyl-7H-pyrrolo[2,3-d]pyrimidin-5-yl)-3-methoxybenzonitrile] | 870 | 2900 | 1390 | 2320 | 170 ± 110 | 60 ± 30 | 380 ± 70 | 3000 ± 1050 | 690 ± 190 | 100 ± 170 | 500 ± 170 | 440 ± 240 | 150 ± 20 | 350 ± 80 | 1490 ± 240 | 200 ± 80 |  |  |  | % Parasite reduction Bone marrow (L. infantum; 25 mg/kg bid): 98.9%; % Parasite reduction Liver (L. infantum; 25 mg/kg bid): 95.9%; % Parasite reduction Spleen (L. infantum; 25 mg/kg bid): 95.2%; % Parasite reduction Bone marrow (L. infantum; 50 mg/kg bid): 97.4%; % Parasite reduction Liver (L. infantum; 50 mg/kg bid): 99.2%; % Parasite reduction Spleen (L. infantum; 50 mg/kg bid): 95.3%
Cc1[nH]c2nc(N)nc(C)c2c1-c1ccc(F)c2c1OCO2 [Compound C2, 5-(7-fluoro-1,3-benzodioxol-4-yl)-4,6-dimethyl-7H-pyrrolo[2,3-d]pyrimidin-2-amine] | 150 | 330 | 140 | 650 |  |  |  |  |  |  |  |  |  |  |  |  |  |  |  | 
COc1nc(OCC(F)(F)F)cnc1-c1c(C)[nH]c2nc(N)nc(C)c12 [Compound C3, 5-[3-methoxy-5-(2,2,2-trifluoroethoxy)pyrazin-2-yl]-4,6-dimethyl-7H-pyrrolo[2,3-d]pyrimidin-2-amine] | 1580 | 3480 | 1570 | 6480 | 260 ± 130 | 120 ± 10 | 540 ± 50 | 6640 ± 610 | 690 ± 360 | 320 ± 160 | 830 ± 340 | 820 ± 330 | 230 ± 100 | 400 ± 140 | 2380 ± 420 | 330 ± 80 | 86.7 | 98.4 | 99.0 | % Parasite reduction Bone marrow (L. infantum; 12.5 mg/kg qd): 89.9%; % Parasite reduction Liver (L. infantum; 12.5 mg/kg qd): 96.1%; % Parasite reduction Spleen (L. infantum; 12.5 mg/kg qd): 98.4%
Cc1[nH]c2nc(N)nc(C)c2c1-c1ccc(C#N)c2c1OCO2 [Compound C4, 7-(2-amino-4,6-dimethyl-7H-pyrrolo[2,3-d]pyrimidin-5-yl)-1,3-benzodioxole-4-carbonitrile] | 150 | 370 | 160 | 410 |  |  | 60 ± 20 |  |  |  |  |  |  | 70 ± 10 |  |  | 99.4 | 99.6 | 99.9 | % Parasite reduction Bone marrow (L. infantum; 6.25 mg/kg bid): 93.6%; % Parasite reduction Liver (L. infantum; 6.25 mg/kg bid): 96.9%; % Parasite reduction Spleen (L. infantum; 6.25 mg/kg bid): 97.6%; % Parasite reduction Bone marrow (L. infantum; 12.5 mg/kg bid): 99.6%; % Parasite reduction Liver (L. infantum; 12.5 mg/kg bid): 99.7%; % Parasite reduction Spleen (L. infantum; 12.5 mg/kg bid): 99.9%; % Parasite reduction Bone marrow (L. infantum; 50 mg/kg qd): 99.9%; % Parasite reduction Liver (L. infantum; 50 mg/kg qd): 99.7%; % Parasite reduction Spleen (L. infantum; 50 mg/kg qd): 99.9%; IC50 [3]: 30 ± 10 nM; IC50 [4]: 10 nM; IC50 [6]: 560 ± 260 nM; IC50 [7]: 170 ± 70 nM; IC50 [8]: 30 ± 30 nM; IC50 [9]: 80 ± 20 nM; IC50 [10]: 50 ± 30 nM; IC50 [11]: 40 ± 10 nM; IC50 [13]: 300 ± 90 nM; IC50 [14]: 50 ± 10 nM
COc1ccccc1-c1c(C)[nH]c2nc(N)nc(C)c12 [TCMDC-143610] |  |  |  |  |  |  |  |  |  |  |  |  |  |  |  |  |  |  |  | pIC50 [15]: 4.6; pIC50 [16]: 6.6
